Data set [1] concerns rat plasma. As to the kind of experiment: Erythrocyte plasma partitioning (rat plasma). The class given is in vitro ADME. Particulars: Method B (erythrocyte plasma partitioning); Wistar rat, male; about 200 μg/l. The method, then:
Ultrafiltration, equilibrium dialysis and the determination of the free fraction of a drug via distribution between erythrocytes and plasma were performed as previously described^8,12.

Data set [2] concerns rat plasma. As to the kind of experiment: Protein binding via distribution between diluted plasma and Transil (rat plasma). Type of data set: in vitro ADME. Particulars: Method A (Transil); Wistar rat, male; about 200 μg/l; LC/MS-MS or HPLC. The protocol:
Protein binding of all drugs was determined via partitioning between diluted plasma and Transil® in vitro. All incubations were performed in glass tubes. An isotonic potassium phosphate buffer, pH 7.4 (Dulbeccos PBS, Sigma D8534) was used for diluting the plasma.
The total incubation volume was generally between 0.3 and 1 ml. The diluted plasma (150 to 980 μl) of the test species was pipetted into glass tubes and Transil® (10 to 300 μl) was added. The test substance dissolved in a small volume of a suitable solvent was added to the Transil®-plasma suspensions.
The degree of the dilution and the Transil®-volume should be chosen with respect to the expected fu value. […]
The radioactivity concentration in the suspension was determined directly after incubation. The radioactivity concentration (or the drug concentration in the case of HPLC or LC/MS-MS analytics) in plasma was determined after centrifugation.
The free fraction in diluted plasma was calculated as the ratio of the partition coefficients for the Transil®/plasma′ (MAplasma) and the Transil®/buffer distribution (MAbuffer).
In a second experiment, the total amount in the Transil®-plasma suspension and the concentration in diluted plasma, Cplasma′, were determined. The partitioning between Transil® and the diluted plasma (the apparent membrane affinity in diluted plasma), MAplasma′, was calculated as: [formula] […]

`O=C(NC[C@H]1CN(c2ccc(N3CCOCC3=O)cc2)C(=O)O1)c1ccc(Cl)s1` [Drug III]: the fu in the data set with rat plasma [1] turned out to be 1.49%; in the data set on rat plasma [2] it was 1.62%.

(Values after patent US20070111208A1, “Determination of free fractions” (Bayer HealthCare AG, priority 2003, published 2007).)
